Patent US20130274270A1, “POLYMORPHS OF 3-CHLORO-4[(2R)-2-(4-CHLOROPHENYL)-4-[(1R)-1-(4-CYANOPHENYL)ETHYL]-1-PIPERAZINYL]-BENZONITRILE, PHARMACEUTICAL COMPOSITIONS AND METHOD OF USE COMPRISING SAID POLYMORPHS, AND A PROCESS FOR PREPARING THEM” (priority 2010, published 2013)
Counter-ions that a name gives are not always drawn.

How the values were obtained:
Format in all cases: physicochemical
Photosensitivity = conditions: especially in solution
[1] = Thermogravimetric analysis (TGA)
Protocol: (§1) All powder X-ray diffraction (PXRD) data was collected using a Rigaku Miniflex instrument. Samples were analyzed on silicon zero background holders from 2 to 40 degrees two theta with a step size of 0.02 degrees two theta and a scan time of 0.6 seconds per step. Differential scanning calorimetry (DSC) data was collected using a Q100 DSC from TA Instruments. Samples were sealed in hermetic aluminum pans with two pinholes in the lid. All were analyzed under nitrogen purge. Vapor sorption analysis was performed using a SGA-100 from VTI Scientific Instruments. Thermogravimetric analysis (TGA) data was collected on a Q500 TGA from TA Instruments. Samples were analyzed in platinum pans under a nitrogen purge.

[2] = Change in crystal form as a function of milling; conditions: ground for 5 seconds at 3800 rpm
Protocol: Change in crystal form as a function of milling was conducted by grinding 79.2 milligrams of material in a stainless steel liner with a stainless steel ball pestle using a high speed mixer and amalgamator. The material was ground for 5 seconds at 3800 rpm.

[3] = Competition slurry experiments
Protocol: Competition slurry experiments were conducted by combining approximately 100 milligrams of starting material with 1 milliliter of solvent in a 4 milliliter amber glass vial. A polytetrafluoroethylene coated magnetic stir bar was added to each vial. The slurry sample was stirred for one day and checked to confirm solids were still present. The sample was then seeded with forms identified during the polymorph screening and continued stirring at room temperature for 9 days. Solids were collected and analyzed to determine their crystal form.
The evaporative crystallization experiments from solutions produced another polymorph, termed Form II, and two suspected solvates or hydrates. Competition slurries were prepared with Form I, Form II and the suspected solvates or hydrates to confirm they were metastable with respect to Form 1. The competition slurries were prepared by dispersing Form II in isopropanol, a water/methanol mixture at a water activity of 0.5, and water.
A variable-temperature competition slurry was repeated using Forms I and III by suspending approximately 100 mg of each form in 2 milliliters of isopropanol at 4° C., room temperature, 40° C., and 50° C. The slurries were allowed to stir for 11 days and checked by PXRD. […] Afterwards, the solutions were seeded with Form I and stirred for 1 day.

[4] = Vapor sorption analysis (change in crystal form as a function of moisture); conditions: 25° C.
Protocol: as §1
Change in crystal form as a function of moisture was evaluated by a SGA-100 vapor sorption instrument from VTI Scientific Instruments. Approximately 10 to 15 mg of material was exposed to a relative humidity range from 5% to 95% at 25° C. for 2 cycles.

[5] = Solvent-mediated polymorphic transformation experiments (slurry / slow evaporation, PXRD)
Protocol: Solvent-mediated polymorphic transformation experiments were conducted by combining approximately 100 mg of starting material with 1 milliliter of solvent in a 4 mL amber glass vial. A polytetrafluoroethylene coated magnetic stir bar was added to each vial. For suspensions, the vials were sealed with polytetrafluoroethylene-lined caps and stirred using magnetic stir plates at 4° C., room temperature, or 50° C. for 14 days. For solutions, the vials were covered with aluminum foil and the solutions were slowly evaporated for 14 days. Solids were collected and analyzed for changes in crystal form. For this work, both slurry and evaporative crystallization was performed. Slurry experiments are utilized to identify the thermodynamically stable form while evaporative crystallizations favor the identification of metastable forms.

DSC, heat of fusion rule = conditions: monotropically related forms
Protocol: as §1

[6] = Change in crystal form as a function of heating (DSC heating rates); conditions: DSC at 2° C., 10° C. and 20° C. per minute
Protocol: Change in crystal form as a function of heating was evaluated by analyzing samples of the material using the DSC at heating rates of 2, 10, and 20° C. per minute.

[7] = Change in crystal form as a function of pressure (Carver press); conditions: 13 mm die, approximately 4000 pounds, approximately 30 seconds
Protocol: Change in crystal form as a function of pressure was evaluated by pressing 86.0 mg of material in a 13 millimeter die at approximately 4000 pounds for approximately 30 seconds with a carver press.

[8] = Temperature-solubility profile in isopropanol (Crystal 16)
Protocol: To further characterize Form III, temperature-solubility profiles were constructed for both Form I and III. Different amounts of each form were suspended in 1 milliliter of isopropanol to prepare solutions of varying concentrations. The experiments were conducted on Crystal 16 to generate a temperature-solubility profile. The suspensions were slowly heated from 20° C. to 75° C. at 0.1° C./min and then cooled to 0° C. at a rate of 0.1° C. /min. The stirring rate was 700 rpm during the entire experiment.

[9] = Acetonitrile, RT/Solution, slowly evaporated 14 days
[10] = Dichloromethane, RT/Solution, slowly evaporated 14 days
[11] = Isopropanol, RT/Suspension, stirred 14 days
[12] = Water, RT/Suspension, stirred 14 days
[13] = Water/Methanol, 4° C./Suspension, stirred 14 days
[14] = Water/Methanol, 50° C./Suspension, stirred 14 days
[15] = Water/Methanol, RT/Suspension, stirred 14 days

| SMILES | sensitivity to light (Photosensitivity) | decomposition temperature [1] | Thermodynamic stability by competition slurry experiments [3] | PXRD Result [5, 9] | PXRD Result [5, 10] | PXRD Result [5, 11] | PXRD Result [5, 12] | PXRD Result [5, 13] | PXRD Result [5, 14] | PXRD Result [5, 15] | also measured |
| --- | --- | --- | --- | --- | --- | --- | --- | --- | --- | --- | --- |
| C[C@H](c1ccc(C#N)cc1)N1CCN(c2ccc(C#N)cc2Cl)[C@H](c2ccc(Cl)cc2)C1 [Compound A, 3-Chloro-4[(2R)-2-(4-chlorophenyl)-4-[(1R)-1-(4-cyanophenyl)ethyl]-1-piperazinyl]-benzonitrile] | photosensitive | – | – | – | – | – | – | – | – | – | – |
| C[C@H](c1ccc(C#N)cc1)N1CCN(c2ccc(C#N)cc2Cl)[C@H](c2ccc(Cl)cc2)C1 [Form I, 3-Chloro-4[(2R)-2-(4-chlorophenyl)-4-[(1R)-1-(4-cyanophenyl)ethyl]-1-piperazinyl]-benzonitrile] | – | above 295 °C | a stable form | Form 2 | Form 2 | Form 1 | Form 1 | Form 1 | Form 1 | Form 1 | weight loss (TGA) ([1]; at 204° C.): 0.6%; change in crystal form after milling [2]: no significant change in the crystal form; polymorphic form change after vapor sorption analysis (PXRD before and after) ([4]; 5% to 95% relative humidity): no polymorphic form change; moisture absorbed by weight ([4]; between 5% and 95% relative humidity, 2 cycles): 0.07%; PXRD Result ([5]; Toluene, 50° C./Solution, 14 days): Amorphous; Thermodynamic stability indicated by slurry experiments ([5]; all slurry experiments except those in water, regardless of starting form, water activity or temperature): the most thermodynamically stable form; relative thermodynamic stability of Form I and Form II (heat of fusion rule) (DSC, heat of fusion rule): the more thermodynamically stable; change in crystal form as a function of heating rate [6]: no change in the crystal form; change in crystal form after pressing [7]: no significant change in the crystal form |
| C[C@H](c1ccc(C#N)cc1)N1CCN(c2ccc(C#N)cc2Cl)[C@H](c2ccc(Cl)cc2)C1 [Form II, 3-Chloro-4[(2R)-2-(4-chlorophenyl)-4-[(1R)-1-(4-cyanophenyl)ethyl]-1-piperazinyl]-benzonitrile] | – | 310 °C | – | Form II | Form II | Form I | Form II | Form I | Form I | Form I | weight loss (TGA) ([1]; at 226° C.): 0.6%; Crystal form of solids collected from competition slurry ([3]; Form II dispersed in isopropanol, seeded with the other forms, room temperature): consistent with Form I; Crystal form of solids collected from competition slurry ([3]; Form II dispersed in water, seeded, room temperature): stayed as Form II; Crystal form of solids collected from competition slurry ([3]; Form II dispersed in water/methanol mixture at a water activity of 0.5, seeded, room temperature): consistent with Form I |
| C[C@H](c1ccc(C#N)cc1)N1CCN(c2ccc(C#N)cc2Cl)[C@H](c2ccc(Cl)cc2)C1 [Form III, 3-Chloro-4[(2R)-2-(4-chlorophenyl)-4-[(1R)-1-(4-cyanophenyl)ethyl]-1-piperazinyl]-benzonitrile] | – | 312 °C | the most stable form | – | – | – | – | – | – | – | weight loss (TGA) ([1]; at 228° C.): 0.07%; PXRD result of variable-temperature competition slurry of Forms I and III ([3]; about 100 mg of each form in 2 mL isopropanol at 4° C., room temperature, 40° C. and 50° C., 11 days): Form III was formed under all conditions; PXRD result after seeding with Form I ([3]; isopropanol slurries seeded with Form I and stirred for 1 day): remained as Form III; thermodynamic stability from temperature-solubility profile ([8]; above 29.4° C.): the most thermodynamically stable anhydrous crystalline form; relative solubility ([8]; at temperatures greater than 29.4° C.): less soluble than Form I |
| CC(c1ccc(C#N)cc1)N1CCN(c2ccc(C#N)cc2Cl)C(c2ccc(Cl)cc2)C1 (stereo not drawn) [Formula II] | photosensitive | – | – | – | – | – | – | – | – | – | – |
| C[C@H](c1ccc(C#N)cc1)N1CCN(c2ccc(C#N)cc2Cl)[C@H](c2ccc(Cl)cc2)C1 [xinafoate salt] | – | – | – | – | – | – | – | – | – | – | weight loss (TGA) ([1]; at 146° C.): 0.2%; behaviour of the salt on melting (large weight loss at melt) ([1]; melt at 163.5° C.): disproportionates or decomposes with melting; weight loss (TGA) ([1]; starting from 161° C. and ending at 236° C.): 27.2% |
